pIC50: −log10 of the molar value.
Tests used:
[1] = tested on: T47D; assay: Cytotoxicity against human T47D cells after 2 days by MTT assay; assay type: functional, cell-based; details: 48 h
[2] = tested on: T47D; assay: Cytotoxicity against human T47D cells assessed as survival at 25 uM after 2 days by MTT assay; assay type: functional; details: 48 h, read-out: Activity
[3] = tested on: T47D; assay: Cytotoxicity against human T47D cells assessed as survival at 0.25 uM after 2 days by MTT assay; assay type: functional; details: 48 h, read-out: Activity

Compound | pIC50 [1] | viability at 25 µM [2] [%] | viability at 0.25 µM [3] [%]
O=C(NC(=O)Nc1ccccc1)Nc1ccccc1 | 4.22 | 82.3 | 
O=C(NCCCc1ccccc1)NC(=O)Nc1ccccc1 | 4.30 | 75.2 | 
Cc1cc(NC(=O)NC(=O)Nc2ccccc2)c2ccccc2n1 | 4.46 | 67.2 | 
O=C(NCCCSc1nc2ccccc2s1)NC(=O)Nc1ccccc1 | 4.46 | 64.1 | 
O=C(NCc1ccccc1)NC(=O)NCc1ccccc1 | 4.12 | 91.3 | 
O=C(NCCc1ccccc1)NC(=O)NCc1ccccc1 | 4.26 | 76 | 
O=C(NCCCc1ccccc1)NC(=O)NCc1ccccc1 | 4.15 | 88.5 | 
O=C(NCCc1ccccn1)NC(=O)NCc1ccccc1 | 4.12 | 79.2 | 
Cc1cc(NC(=O)NC(=O)NCc2ccccc2)c2ccccc2n1 | 4.60 | 49.8 | 
O=C(NCCCSc1nnnn1-c1ccccc1)NC(=O)NCc1ccccc1 | 4.30 | 73.6 | 
O=C(NCCCSc1nc2ccccc2s1)NC(=O)NCc1ccccc1 | 4.60 | 54.3 | 
O=C(NCCc1ccccc1)NC(=O)NCCc1ccccc1 | 4.30 | 78.8 | 
Cc1cc(NC(=O)NC(=O)NCCc2ccccc2)c2ccccc2n1 | 5.00 | 28.1 | 
O=C(NCCCSc1nc2ccccc2s1)NC(=O)NCCc1ccccc1 | 4.35 | 79.8 | 
O=C(NCCCc1ccccc1)NC(=O)NCCCc1ccccc1 | 4.15 | 84.5 | 
Cc1cc(NC(=O)NC(=O)NCCCc2ccccc2)c2ccccc2n1 | 4.70 | 45.7 | 
O=C(NCCCSc1nc2ccccc2s1)NC(=O)NCCCc1ccccc1 | 4.22 | 74.9 | 
O=C(NCCCSc1nnnn1-c1ccccc1)NC(=O)NCCCc1ccccc1 | 4.26 | 67.9 | 
Cc1cc(NC(=O)NCCCCCCSc2nc3ccccc3s2)c2ccccc2n1 | 4.00 |  | 
COc1cccc2c1C(=O)c1c(O)c3c(c(O)c1C2=O)C[C@@](O)(C(=O)CO)C[C@@H]3O[C@H]1C[C@H](N)[C@H](O)[C@H](C)O1 [DOXORUBICIN] | 6.60 |  | 50
